Laboratory results: US20100056622A1, “Methods of Using Ramelteon to Treat Patients Suffering from a Variety of Neurodegenerative Diseases” (priority 2008, published 2010)

Assays:
[1] = tested on: patient with Probable Dementia with Lewy Bodies; assay: Case report Example 1: ramelteon in a patient with Probable Dementia with Lewy Bodies; format: in vivo, human; settings: 2 week follow-up
Method: A person with a 4 year history of Probable Dementia with Lewy Bodies was treated with ramelteon as follows. The patient presented for treatment was experiencing poor sleep (i.e., interval insomnia with only 3-4 hours of sleep at night), fatigue, weight loss, poor concentration, anhedonia, irritability, social withdrawal, but no depressive mood or depressive cognitions. The patient would nap for an hour in the afternoons, consistent with Excessive Daytime Somnolence (EDS), nocturnal insomnia, or dopamine agonist therapy. They admitted to some anxiety daily in the afternoons lasting up to an hour, but had no somatic symptoms with this. Confusion was mild, but occurred once daily, and they had hallucinated only once, 6 weeks previously. There was significant nocturnal incontinence associated with the insomnia, with 4 or more episodes per night. The Neuropsychiatric Inventory Questionnaire (NPI-Q) was administered with the result being a score of 11 (delusions 1, agitation 2, irritability 1, nighttime behaviors 6, appetite 1). The […] al. Apathy Scale was also administered with the result being a score of 31. Ramelteon was administered beginning at 8 mg at bedtime and increased after 3 days to 16 mg by mouth each night at bedtime. At a 2 week follow-up, the patient began sleeping 7 hours each night, with only 2 episodes of incontinence at night.

[2] = tested on: patient with Probable Parkinson's Disease Dementia; assay: Case report Example 2: ramelteon in a patient with Probable Parkinson's Disease Dementia (person); format: in vivo, human; settings: after 2 weeks
Method: A person with a 10 year history of Probable Parkinson's Disease Dementia was treated with ramelteon as follows. The patient presented for treatment was experiencing dementia EDS, REM behavior disorder (i.e., RBD, manifest in acting out their dreams while asleep), and symptoms of Parkinson's disease (e.g., bradykinesia, rigidity, resting tremor, and postural instability). […] After 2 weeks of treatment with ramelteon, 8 mg each night at bedtime, scores had improved on the ESS from 19 to 16, DRS-2 (DRS-2 Conceptualization score) improved from 35 to 38, Memory from 24 to 25, Total from 138 to 141, and Trails (Trails B 68 to 60, Trails B-Trails A 36 to 28). Thus, treatment with ramelteon led to demonstrable improvement in excessive daytime sleepiness, concept formation (i.e., similitudes and differences), memory (i.e., spontaneous recall, factual knowledge, and recognition), overall cognition, and measures of executive function.

[3] = tested on: patient with Probable Parkinson's Disease Dementia; assay: Case report Example 3: ramelteon in a patient with Parkinson Disease and Probable Parkinson's Disease Dementia (person); format: in vivo, human; settings: 10 weeks
Method: A person with an 18 year history of Parkinson Disease with subsequent development of Probable Parkinson's Disease Dementia was treated with ramelteon. The patient presented was experiencing dementia (i.e., memory loss, inattention, and dysexecutive syndrome), initial and interval insomnia, and typical features of Parkinson's disease (i.e., bradykinesia, rigidity, resting tremor, and postural instability). The patient was started on ramelteon, 8 mg each night at bedtime, and was seen again 10 weeks later. DRS-2 Initiation (i.e., categorical naming reflecting temporal lobe function) improved from a score of 31 to 34, Controlled Oral Word Association Test S Subtest (i.e., naming reflecting frontal lobe function) from 14 to 17, CLOX 1 (i.e., reflecting executive function) from 6 to 8, and ADCS-ADL disability (i.e., reflecting ability to perform activities of daily living) from 43 to 47. Thus, treatment with ramelteon was associated with improvements in temporal and frontal lobe—related naming, executive function, and overall ability to cognitively function.

melatonin-1 receptor = melatonin-1 receptor (Homo sapiens, UniProt P48039); settings: cited from earlier work
melatonin-1 receptor, sequence (P48039 whole entry): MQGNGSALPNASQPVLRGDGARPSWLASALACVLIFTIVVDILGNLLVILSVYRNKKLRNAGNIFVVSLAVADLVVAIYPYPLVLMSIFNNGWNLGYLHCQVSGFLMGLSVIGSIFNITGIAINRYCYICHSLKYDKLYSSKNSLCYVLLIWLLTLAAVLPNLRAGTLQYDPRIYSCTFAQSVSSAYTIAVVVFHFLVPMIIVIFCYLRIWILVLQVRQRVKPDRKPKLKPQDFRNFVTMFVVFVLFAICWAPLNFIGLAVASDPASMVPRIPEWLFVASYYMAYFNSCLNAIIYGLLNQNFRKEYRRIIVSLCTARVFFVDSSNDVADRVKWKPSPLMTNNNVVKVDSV

melatonin-2 receptor = target: T1, melatonin-2 receptor (Homo sapiens, UniProt P49286); settings: cited from earlier work
T1 sequence (P49286 1-362): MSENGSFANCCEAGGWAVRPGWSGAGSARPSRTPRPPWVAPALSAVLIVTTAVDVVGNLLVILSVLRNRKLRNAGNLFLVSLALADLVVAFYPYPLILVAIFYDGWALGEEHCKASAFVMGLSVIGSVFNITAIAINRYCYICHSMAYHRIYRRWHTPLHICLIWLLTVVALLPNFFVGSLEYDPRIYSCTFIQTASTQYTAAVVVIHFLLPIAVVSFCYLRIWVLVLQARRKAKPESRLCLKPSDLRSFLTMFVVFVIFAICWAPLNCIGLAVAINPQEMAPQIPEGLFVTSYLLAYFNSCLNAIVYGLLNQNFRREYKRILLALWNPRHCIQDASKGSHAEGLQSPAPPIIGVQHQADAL

[4] = tested on: mouse cerebellar granule cells; settings: cited from earlier work
[5] = tested on: liver function after hemorrhagic shock and reperfusion; settings: rats; cited from earlier work

CCC(=O)NCC[C@@H]1CCc2ccc3c(c21)CCO3 [ramelteon, (S)—N-[2-(1,6,7,8-tetrahydro-2H-indeno-[5,4-b]furan-8-yl)ethyl]propionamide]
MMSE scores [1]: did not show a change | afternoon anxiety [1]: no longer of concern | anhedonia [1]: absent | appetite [1]: improved | confusional episodes, intensity [1]: reduced in intensity | hallucinations [1]: continued in remission | irritability [1]: markedly better | social withdrawal [1]: absent | sleep each night ([1]; 8 mg then 16 mg by mouth at bedtime, before treatment 3-4 hours): 7 h | NPI-Q appetite ([1]; before treatment 1): 1 | NPI-Q delusions ([1]; before treatment 1): 0 | NPI-Q agitation ([1]; before treatment 2): 0 | episodes of incontinence at night ([1]; before treatment 4 or more episodes per night): 2 episodes | NPI-Q nighttime behaviors ([1]; before treatment 6): 1 | NPI-Q score (total) ([1]; before treatment 11): 2 | Apathy Scale (Starkstein et al.) score ([1]; before treatment 31): 37 | confusional episodes, frequency ([1]; before treatment once daily): half as frequent | DRS-2 Memory score ([2]; 8 mg at bedtime, before treatment 24): 25 | DRS-2 Conceptualization score ([2]; 8 mg at bedtime, before treatment 35): 38 | Trails B-Trails A ([2]; 8 mg at bedtime, before treatment 36): 28 | Trails B ([2]; 8 mg at bedtime, before treatment 68): 60 | DRS-2 Total score ([2]; 8 mg at bedtime, before treatment 138): 141 | Epworth Sleepiness Scale (ESS) score ([2]; 8 mg each night at bedtime, before treatment 19): 16 | CLOX 1 ([3]; 8 mg at bedtime, before treatment 6): 8 | Controlled Oral Word Association Test S Subtest ([3]; 8 mg at bedtime, before treatment 14): 17 | ADCS-ADL activities of daily living score ([3]; 8 mg at bedtime, before treatment 43): 47 | DRS-2 Initiation score ([3]; 8 mg each night at bedtime, before treatment 31): 34 | agonist potency relative to melatonin (melatonin-1 receptor): more potent at these sites than melatonin itself | agonist potency relative to melatonin (melatonin-2 receptor): more potent at these sites than melatonin itself | concentrations of BDNF in neurons [4]: increased concentrations of BDNF in neurons | recovery of the liver after reperfusion [5]: improved recovery of the liver after reperfusion
